These results are taken from patent US8450304B2, “4-azetidinyl-1-heteroaryl-cyclohexanol antagonists of CCR2” (Janssen Pharmaceutica N.V., priority 2008, dated 2013).

T1 sequence (P41597 whole entry): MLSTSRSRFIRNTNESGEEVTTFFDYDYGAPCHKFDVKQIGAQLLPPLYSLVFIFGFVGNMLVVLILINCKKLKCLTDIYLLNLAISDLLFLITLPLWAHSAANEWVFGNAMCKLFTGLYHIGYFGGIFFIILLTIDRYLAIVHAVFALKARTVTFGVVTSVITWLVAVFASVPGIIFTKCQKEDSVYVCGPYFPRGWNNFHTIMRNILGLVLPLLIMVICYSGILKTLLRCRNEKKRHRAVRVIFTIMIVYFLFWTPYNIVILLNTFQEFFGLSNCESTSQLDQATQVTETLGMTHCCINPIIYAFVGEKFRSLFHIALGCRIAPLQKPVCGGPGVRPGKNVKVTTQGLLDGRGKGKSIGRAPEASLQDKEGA

This test addresses T1, CCR2 (Homo sapiens, UniProt P41597).
T1 construct: host or cells: THP-1 (human monocytic cell line), whole cells
Put plainly: MCP-1 Receptor Binding Assay in THP-1 Cells. To be noted: 0.5 nM 125I labeled MCP-1, 2 hours at 30° C., read-out: Inhibition of MCP-1 Binding IC50, CCR2 Binding. Here is the method: Compounds of the invention were subjected to various representative biological tests. […] MCP-1 Receptor Binding Assay in THP-1 Cells
Human monocytic cell line THP-1 cells were obtained from American Type Culture Collection (Manassas, Va., USA). […] The cell density was maintained […].
1 μM cold MCP-1 was used for nonspecific binding.
With `O=C(CNC(=O)c1cccc(C(F)(F)F)c1)NC1CN(C2CCC(O)(c3nc4ccc(Br)cc4s3)CC2)C1` (single isomer, unassigned) [Example 36a, N-({1-[4-(6-Bromo-benzothiazol-2-yl)-4-hydroxy-cyclohexyl]-azetidin-3-ylcarbamoyl}-methyl)-3-trifluoromethyl-benzamide], the IC50 was 3.8 nM.

As to `Cn1cc(Br)c(C2(O)CCC(N3CC(NC(=O)CNC(=O)c4cccc(C(F)(F)F)c4)C3)CC2)n1` (single isomer, unassigned) [Example 31a, N-({1-[4-(4-Bromo-1-methyl-1H-pyrazol-3-yl)-4-hydroxy-cyclohexyl]-azetidin-3-ylcarbamoyl}-methyl)-3-trifluoromethyl-benzamide], the IC50 came out at 440 nM. In the case of `O=C(CNC(=O)c1cccc(C(F)(F)F)c1)NC1CN(C2CCC(O)(c3cc(Br)cs3)CC2)C1` (centres unmarked) [Example 60, N-({1-[4-(4-Bromo-thiophen-2-yl)-4-hydroxy-cyclohexyl]-azetidin-3-ylcarbamoyl}-methyl)-3-trifluoromethyl-benzamide] it was 230 nM; in that of `Cc1cc(C2(O)CCC(N3CC(NC(=O)CNC(=O)c4cccc(C(F)(F)F)c4)C3)CC2)sn1` (single isomer, unassigned) [Example 58a, N-({1-[4-Hydroxy-4-(3-methyl-isothiazol-5-yl)-cyclohexyl]-azetidin-3-ylcarbamoyl}-methyl)-3-trifluoromethyl-benzamide], 90 nM.

As to `Cc1ccc(C2(O)CCC(N3CC(NC(=O)CNC(=O)c4cc(C(F)(F)F)ccc4C(F)(F)F)C3)CC2)cn1` (single isomer, unassigned) [Example 69a, N-({1-[4-Hydroxy-4-(6-methyl-pyridin-3-yl)-cyclohexyl]-azetidin-3-ylcarbamoyl}-methyl)-2,5-bis-trifluoromethyl-benzamide], the IC50 amounted to 240 nM. In the case of `O=C(CNC(=O)c1cccc(C(F)(F)F)c1)NC1CN(C2CCC(O)(c3cnc(N4CCCC4)s3)CC2)C1` (centres unmarked) [Example 51, N-({1-[4-Hydroxy-4-(2-pyrrolidin-1-yl-thiazol-5-yl)-cyclohexyl]-azetidin-3-ylcarbamoyl}-methyl)-3-trifluoromethyl-benzamide] it was 3300 nM; in that of `COc1ncc(C2(O)CCC(N3CC(NC(=O)CNC(=O)c4cccc(C(F)(F)F)c4)C3)CC2)c(OC)n1` (single isomer, unassigned) [Example 29a, N-({1-[4-(2,4-Dimethoxy-pyrimidin-5-yl)-4-hydroxy-cyclohexyl]-azetidin-3-ylcarbamoyl}-methyl)-3-trifluoromethyl-benzamide], 24000 nM; in that of `CS(=O)(=O)c1ncc(C2(O)CCC(N3CC(NC(=O)CNC(=O)c4cccc(C(F)(F)F)c4)C3)CC2)s1` (single isomer, unassigned) [Example 47a, N-({1-[4-Hydroxy-4-(2-methanesulfonyl-thiazol-5-yl)-cyclohexyl]-azetidin-3-ylcarbamoyl}-methyl)-3-trifluoromethyl-benzamide], 260 nM. The figure for `COc1ccc(C2(O)CCC(N3CC(NC(=O)CNC(=O)c4cccc(C#N)c4)C3)CC2)cn1` (centres unmarked) [Example 21, 3-Cyano-N-({1-[4-hydroxy-4-(6-methoxy-pyridin-3-yl)-cyclohexyl]-azetidin-3-ylcarbamoyl}-methyl)-benzamide] is 7500 nM. In the case of `COc1ccc(C2(O)CCC(N3CC(NC(=O)CNC(=O)c4ccc5c(c4)OCO5)C3)CC2)cn1` (centres unmarked) [Example 20, Benzo[1,3]dioxole-5-carboxylic acid ({1-[4-hydroxy-4-(6-methoxy-pyridin-3-yl)-cyclohexyl]-azetidin-3-ylcarbamoyl}-methyl)-amide] it was 6900 nM; in that of `C[S+]([O-])c1ncc(C2(O)CCC(N3CC(NC(=O)CNC(=O)c4cccc(C(F)(F)F)c4)C3)CC2)s1` (single isomer, unassigned) [Example 46, N-({1-[4-Hydroxy-4-(2-methanesulfinyl-thiazol-5-yl)-cyclohexyl]-azetidin-3-ylcarbamoyl}-methyl)-3-trifluoromethyl-benzamide], 660 nM.

With `O=C(CNC(=O)c1cccc(C(F)(F)F)c1)NC1CN(C2CCC(O)(c3ccc(OCc4ccccc4)nc3)CC2)C1` (single isomer, unassigned) [Example 7a, N-({1-[4-(6-Benzyloxy-pyridin-3-yl)-4-hydroxy-cyclohexyl]-azetidin-3-ylcarbamoyl}-methyl)-3-trifluoromethyl-benzamide], the IC50 is 1900 nM. The figure for `CC(C)(C)Oc1ncc(C2(O)CCC(N3CC(NC(=O)CNC(=O)c4cccc(C(F)(F)F)c4)C3)CC2)s1` (centres unmarked) [Example 54, N-({1-[4-(2-tert-Butoxy-thiazol-5-yl)-4-hydroxy-cyclohexyl]-azetidin-3-ylcarbamoyl}-methyl)-3-trifluoromethyl-benzamide] is 280 nM; for `COc1ccc(C2(O)CCC(N3CC(NC(=O)CNC(=O)c4ccc(C(F)(F)F)cc4)C3)CC2)cn1` (centres unmarked) [Example 16, N-({1-[4-Hydroxy-4-(6-methoxy-pyridin-3-yl)-cyclohexyl]-azetidin-3-ylcarbamoyl}-methyl)-4-trifluoromethyl-benzamide] it is 6450 nM.

As to `O=C(CNC(=O)c1cccc(C(F)(F)F)c1)NC1CN(C2CCC(O)(c3cccnc3)CC2)C1` (centres unmarked) [Example 15, N-{[1-(4-Hydroxy-4-pyridin-3-yl-cyclohexyl)-azetidin-3-ylcarbamoyl]-methyl}-3-trifluoromethyl-benzamide], the IC50 was 190 nM. Turning to `Cc1ccc(C2(O)CCC(N3CC(NC(=O)CNC(=O)c4cc(C(F)(F)F)cc(C(F)(F)F)c4)C3)CC2)cn1` (single isomer, unassigned) [Example 66a, N-({1-[4-Hydroxy-4-(6-methyl-pyridin-3-yl)-cyclohexyl]-azetidin-3-ylcarbamoyl}-methyl)-3,5-bis-trifluoromethyl-benzamide], the IC50 turned out to be 330 nM.

With `O=C(CNC(=O)c1cccc(C(F)(F)F)c1)NC1CN(C2CCC(O)(c3nc4ccccc4o3)CC2)C1` (centres unmarked) [Example 63, N-{[1-(4-Benzooxazol-2-yl-4-hydroxy-cyclohexyl)-azetidin-3-ylcarbamoyl]-methyl}-3-trifluoromethyl-benzamide], the IC50 worked out at 1000 nM. In the case of `COc1cccc(C(=O)NCC(=O)NC2CN(C3CCC(O)(c4ccc(OC)nc4)CC3)C2)c1` (centres unmarked) [Example 23, N-({1-[4-Hydroxy-4-(6-methoxy-pyridin-3-yl)-cyclohexyl]-azetidin-3-ylcarbamoyl}-methyl)-3-methoxy-benzamide] it was 14500 nM.

Take `C[Si](C)(C)c1ncc(C2(O)CCC(N3CC(NC(=O)CNC(=O)c4cccc(C(F)(F)F)c4)C3)CC2)s1` (single isomer, unassigned) [Example 39a, N-({1-[4-Hydroxy-4-(2-trimethylsilanyl-thiazol-5-yl)-cyclohexyl]-azetidin-3-ylcarbamoyl}-methyl)-3-trifluoromethyl-benzamide]: the half-maximal inhibitory concentration (IC50) turned out to be 13 nM. The figure for `O=C(CNC(=O)c1cccc(C(F)(F)F)c1)NC1CN(C2CCC(O)(c3cnc(O)s3)CC2)C1` (centres unmarked) [Example 48, N-({1-[4-Hydroxy-4-(2-hydroxy-thiazol-5-yl)-cyclohexyl]-azetidin-3-ylcarbamoyl}-methyl)-3-trifluoromethyl-benzamide] is 560 nM.
